Molecular target: human ACSS2 protein (Homo sapiens (Human), UniProt Q9NR19)
Experiment: ACSS2 Cell-Free Activity Assay (Cell-Free IC50)
Conditions: 10 nM human ACSS2 protein, 90 minutes at 37 C, pyrophosphatase-coupled, Biomol Green absorbance at 620 nm; read-out: ACSS2 Biochemical IC50
Excerpt: ACSS2 Cell-Free Activity Assay (Cell-Free IC50)

Chain of human ACSS2 protein (Q9NR19 whole entry): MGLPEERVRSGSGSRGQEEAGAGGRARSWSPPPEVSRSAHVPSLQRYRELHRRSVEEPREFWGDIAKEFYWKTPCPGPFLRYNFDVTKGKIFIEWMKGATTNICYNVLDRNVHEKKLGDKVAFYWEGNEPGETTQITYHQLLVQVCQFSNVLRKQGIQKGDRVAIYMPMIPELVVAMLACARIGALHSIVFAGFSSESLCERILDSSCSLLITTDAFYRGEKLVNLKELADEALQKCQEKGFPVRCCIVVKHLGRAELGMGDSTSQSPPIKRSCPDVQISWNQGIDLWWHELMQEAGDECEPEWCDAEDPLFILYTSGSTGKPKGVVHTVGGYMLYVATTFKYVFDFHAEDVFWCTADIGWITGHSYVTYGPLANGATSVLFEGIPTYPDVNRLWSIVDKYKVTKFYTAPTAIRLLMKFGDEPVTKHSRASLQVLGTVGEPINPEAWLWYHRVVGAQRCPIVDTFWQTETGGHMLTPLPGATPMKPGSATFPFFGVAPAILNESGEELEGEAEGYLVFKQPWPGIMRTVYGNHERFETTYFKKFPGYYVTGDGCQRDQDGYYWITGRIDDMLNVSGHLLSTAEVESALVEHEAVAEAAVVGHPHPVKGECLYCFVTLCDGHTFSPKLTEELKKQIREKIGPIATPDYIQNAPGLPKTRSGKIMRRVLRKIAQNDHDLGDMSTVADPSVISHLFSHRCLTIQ

| IC50 [nM] | Compound |
| --- | --- |
| 1 to 100 | Cc1nn(-c2ccc(OC(F)F)cc2)c(C(F)(F)F)c1C(=O)Nc1cccc(C(C)(F)F)c1 [Compound 192, N-(3-(1,1-difluoroethyl)phenyl)-1-(4-(difluoromethoxy)phenyl)-3-methyl-5-(trifluoromethyl)-1H-pyrazole-4-carboxamide] |
| > 100 | CC(=O)c1c(C(=O)Nc2cccc(C(C)(F)F)c2)c(C)nn1-c1ccc(OC(F)F)cc1 [Compound 193, 5-acetyl-N-(3-(1,1-difluoroethyl)phenyl)-1-(4-(difluoromethoxy)phenyl)-3-methyl-1H-pyrazole-4-carboxamide] |
| 1 to 100 | Cc1nn(-c2ccc(OC(F)F)cc2)c(CO)c1C(=O)Nc1cccc(C(C)(F)F)c1 [Compound 194, N-[3-(1,1-difluoroethyl)phenyl]-1-[4-(difluoromethoxy)phenyl]-5-(hydroxymethyl)-3-methyl-pyrazole-4-carboxamide] |
| 1 to 100 | Cc1nn(-c2ccc(OC(F)F)cc2)cc1C(=O)Nc1cccc(C(C)(F)F)c1 [Compound 196, N-(3-(1,1-difluoroethyl)phenyl)-1-(4-(difluoromethoxy)phenyl)-3-methyl-1H-pyrazole-4-carboxamide] |
| > 100 | CC(F)(F)c1cccc(NC(=O)C2C(=O)N(c3ccc(OC(F)F)cc3)N=C2CS)c1 (centres unmarked) [Compound 197] |
| > 100 | CC1=NN(c2ccc(OC(F)F)cc2)C(=O)C1(C)NC(=O)c1cccc(C(C)(F)F)c1 (centres unmarked) [Compound 198, 3-(1,1-difluoroethyl)-N-(1-(4-(difluoromethoxy)phenyl)-3,4-dimethyl-5-oxo-4,5-dihydro-1H-pyrazol-4-yl)benzamide] |
| 1 to 100 | COc1c(C(=O)Nc2cccc(C(C)(F)F)c2)c(C)nn1-c1ccc(OC(F)F)cc1 [Compound 199, N-(3-(1,1-difluoroethyl)phenyl)-1-(4-(difluoromethoxy)phenyl)-5-methoxy-3-methyl-1H-pyrazole-4-carboxamide] |
| > 100 | Cc1nn(-c2ccc(OC(F)F)cc2)c(F)c1C(=O)Nc1cccc(C(C)(F)F)c1 [Compound 200, N-(3-(1,1-difluoroethyl)phenyl)-1-(4-(difluoromethoxy)phenyl)-5-fluoro-3-methyl-1H-pyrazole-4-carboxamide] |
| > 100 | CCOc1c(C(=O)Nc2cccc(C(C)(F)F)c2)c(C)nn1-c1ccc(OC(F)F)cc1 [Compound 201, N-(3-(1,1-difluoroethyl)phenyl)-1-(4-(difluoromethoxy)phenyl)-5-ethoxy-3-methyl-1H-pyrazole-4-carboxamide] |
| < 1 | CC1=NN(c2ccc(OC(F)F)cc2)C(=O)C1(F)C(=O)Nc1cccc(C(C)(F)F)c1 (centres unmarked) [Compound 205, N-(3-(1,1-difluoroethyl)phenyl)-1-(4-(difluoromethoxy)phenyl)-4-fluoro-3-methyl-5-oxo-4,5-dihydro-1H-pyrazole-4-carboxamide] |
| < 1 | CC1=NN(c2ccc(OC(C)C)cc2)C(=O)C1(F)C(=O)Nc1cccc(C(C)(F)F)c1 (centres unmarked) [Compound 208, N-(3-(1,1-difluoroethyl)phenyl)-4-fluoro-1-(4-isopropoxyphenyl)-3-methyl-5-oxo-4,5-dihydro-1H-pyrazole-4-carboxamide] |
| < 1 | COc1ccc(N2N=C(C)C(F)(C(=O)Nc3cccc(C(C)(F)F)c3)C2=O)cc1 (centres unmarked) [Compound 209, N-(3-(1,1-difluoroethyl)phenyl)-4-fluoro-1-(4-methoxyphenyl)-3-methyl-5-oxo-4,5-dihydro-1H-pyrazole-4-carboxamide] |

The remaining lines, values behind:

| Compound | IC50 [nM] |
| --- | --- |
| Cc1nn(-c2ccc(OC(F)F)c(-c3ccccc3)c2)cc1C(=O)Nc1cccc(C(C)(F)F)c1 [Compound 186, N-(3-(1,1-difluoroethyl)phenyl)-1-(6-(difluoromethoxy)-[1,1’-biphenyl]-3-yl)-3-methyl-1H-pyrazole-4-carboxamide] | 1 to 100 |
| Cc1nn(-c2ccc(OC(F)F)c(-c3cccnc3)c2)c(OC(=O)N2CCN(CCO)CC2)c1C(=O)Nc1cccc(C(C)(F)F)c1 [Compound 187, 4-((3-(1,1-difluoroethyl)phenyl)carbamoyl)-1-(4-(difluoromethoxy)-3-(pyridin-3-yl)phenyl)-3-methyl-1H-pyrazol-5-yl 4-(2-hydroxyethyl)piperazine-1-carboxylate] | > 100 |
| COc1ccc(-n2nc(C)c(C(=O)Nc3cccc(C(C)(F)F)c3)c2OC(=O)N2CCC(N3CCCCC3)CC2)cc1 [Compound 188, 4-((3-(1,1-difluoroethyl)phenyl)carbamoyl)-1-(4-methoxyphenyl)-3-methyl-1H-pyrazol-5-yl [1,4′-bipiperidine]-1′-carboxylate] | 1 to 100 |
| Cc1nn(-c2ccc(OC(F)F)cc2)c(OC(=O)N2CCC(N3CCCCC3)CC2)c1C(=O)Nc1cccc(C(C)(F)F)c1 [Compound 189, 4-((3-(1,1-difluoroethyl)phenyl)carbamoyl)-1-(4-(difluoromethoxy)phenyl)-3-methyl-1H-pyrazol-5-yl [1,4′-bipiperidine]-1′-carboxylate] | 1 to 100 |
| Cc1nn(-c2ccc(OC(F)F)c(-c3cccnc3)c2)c(OC(=O)N2CCC(N3CCCCC3)CC2)c1C(=O)Nc1cccc(C(C)(F)F)c1 [Compound 190, 4-((3-(1,1-difluoroethyl)phenyl)carbamoyl)-1-(4-(difluoromethoxy)-3-(pyridin-3-yl)phenyl)-3-methyl-1H-pyrazol-5-yl [1,4′-bipiperidine]-1′-carboxylate] | 1 to 100 |
| Cc1nn(-c2ccc(OC(F)F)cc2)c(OC(=O)N2CCN(CCO)CC2)c1C(=O)Nc1cccc(C(C)(F)F)c1 [Compound 191, 4-((3-(1,1-difluoroethyl)phenyl)carbamoyl)-1-(4-(difluoromethoxy)phenyl)-3-methyl-1H-pyrazol-5-yl 4-(2-hydroxyethyl)piperazine-1-carboxylate] | 1 to 100 |
| COc1ccc(N2N=C(C)C(Cl)(C(=O)Nc3cccc(C(C)(F)F)c3)C2=O)cc1 (centres unmarked) [Compound 202, 4-chloro-N-(3-(1,1-difluoroethyl)phenyl)-1-(4-methoxyphenyl)-3-methyl-5-oxo-4,5-dihydro-1H-pyrazole-4-carboxamide] | 1 to 100 |
| CC1=NN(c2ccc(OC(F)(F)F)cc2)C(=O)C1(F)C(=O)Nc1cccc(C(C)(F)F)c1 (centres unmarked) [Compound 203, N-(3-(1,1-difluoroethyl)phenyl)-4-fluoro-3-methyl-5-oxo-1-(4-(trifluoromethoxy)phenyl)-4,5-dihydro-1H-pyrazole-4-carboxamide] | > 100 |
| CC1=NN(c2ccc(OC(F)F)c(-c3ccncc3)c2)C(=O)C1(F)C(=O)Nc1cccc(C(C)(F)F)c1 (centres unmarked) [Compound 204, N-(3-(1,1-difluoroethyl)phenyl)-1-(4-(difluoromethoxy)-3-(pyridin-4-yl)phenyl)-4-fluoro-3-methyl-5-oxo-4,5-dihydro-1H-pyrazole-4-carboxamide] | < 1 |
| CC1=NN(c2ccc(OC(F)F)c(-c3cccnc3)c2)C(=O)C1(F)C(=O)Nc1cccc(C(C)(F)F)c1 (centres unmarked) [Compound 206, N-(3-(1,1-difluoroethyl)phenyl)-1-(4-(difluoromethoxy)-3-(pyridin-3-yl)phenyl)-4-fluoro-3-methyl-5-oxo-4,5-dihydro-1H-pyrazole-4-carboxamide] | < 1 |
| CCC(C)Oc1ccc(N2N=C(C)C(F)(C(=O)Nc3cccc(C(C)(F)F)c3)C2=O)cc1 (centres unmarked) [Compound 207, N-[3-(1,1-difluoroethyl)phenyl]-4-fluoro-3-methyl-5-oxo-1-(4-sec-butoxyphenyl)pyrazole-4-carboxamide] | < 1 |
